Earlier results as cited in US6479541B1, “Amiodarone-containing parenteral administration” (Baxter International, priority 2000, dated 2002).

Conditions: dogs, intravenous; literature Gough et al. 1982

Substance: polysorbate 80 [Tween 80]
- cardiodepression / hypotension: associated with cardiodepression, causing hypotension
